Assay results published in patent US8685970B2, “Quinolines and related analogs as sirtuin modulators” (GlaxoSmithKline, LLC, priority 2008, dated 2014).

Molecular target: T1, SIRT1 (Homo sapiens, UniProt Q96EB6)
T1 sequence (Q96EB6 1-747): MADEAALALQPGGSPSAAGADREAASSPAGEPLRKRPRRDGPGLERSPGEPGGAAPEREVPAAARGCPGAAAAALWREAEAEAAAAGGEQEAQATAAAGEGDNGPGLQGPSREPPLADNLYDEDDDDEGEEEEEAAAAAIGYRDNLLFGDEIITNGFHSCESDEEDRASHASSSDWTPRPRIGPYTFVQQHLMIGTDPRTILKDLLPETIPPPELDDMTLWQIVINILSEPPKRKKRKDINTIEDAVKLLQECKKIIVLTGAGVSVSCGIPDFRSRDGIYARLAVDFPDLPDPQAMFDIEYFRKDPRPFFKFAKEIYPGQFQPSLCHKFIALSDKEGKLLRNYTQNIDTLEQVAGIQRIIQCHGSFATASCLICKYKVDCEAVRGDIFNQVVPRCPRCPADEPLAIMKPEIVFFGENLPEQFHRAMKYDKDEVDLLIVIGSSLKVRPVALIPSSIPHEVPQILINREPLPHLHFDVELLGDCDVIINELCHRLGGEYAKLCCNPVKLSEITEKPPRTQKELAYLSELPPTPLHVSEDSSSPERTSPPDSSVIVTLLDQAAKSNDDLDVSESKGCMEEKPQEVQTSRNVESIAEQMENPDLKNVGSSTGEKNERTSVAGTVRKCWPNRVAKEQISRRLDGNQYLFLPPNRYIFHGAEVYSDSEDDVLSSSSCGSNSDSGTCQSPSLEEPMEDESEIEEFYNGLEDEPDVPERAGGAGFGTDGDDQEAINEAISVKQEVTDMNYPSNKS
Test: Mass spectrometry based SIRT1 deacetylation assay (activation)
Assay type: biochemical
Conditions: 10 nM SIRT1, 0.5 μM peptide substrate, 120 μM βNAD+, 25 min at 25° C.
Outline: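 Recombinant N-His-tagged SIRT1 (E. coli BL21(DE3)), 10 nM, incubated 25 min at 25 °C with 0.5 μM biotin/5TMR-labelled acetyl-p53-derived 20-mer peptide and 120 μM βNAD+ in Tris-acetate pH 8 buffer with DTT and BSA. Formic acid stop; MS quantifies acetylated vs deacetylated peptide. EC1.5 = concentration giving 150% activation versus DMSO.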

EC1.5 (concentration of test compound that results in 150% activation of SIRT1) | % Fold Act. (percent maximum fold activation) | SMILES
C (EC1.5>25 uM) | – | O=C(Nc1nc(-c2ccccc2)cs1)c1cccc2ccc(-c3cccc(C(F)(F)F)c3)nc12 [Compound 54]
A (EC1.5<1.0 uM) | A (Fold activation >200%) | O=C(Nc1cccc2ccc(-c3cccc(C(F)(F)F)c3)nc12)c1cccc(OC[C@@H](O)CO)n1 [Compound 203]
C (EC1.5>25 uM) | – | O=S(=O)(Nc1cccc2ccc(-c3cccc(C(F)(F)F)c3)nc12)c1ccccn1 [Compound 273]
A (EC1.5<1.0 uM) | A (Fold activation >200%) | O=C(Nc1ncc(CN2CCOCC2)s1)c1cccc2ccc(-c3cccc(OC(F)(F)F)c3)nc12 [Compound 189]
B (EC1.5 1-25 uM) | B (Fold Activation <200%) | O=C(Nc1cccc2ccc(-c3cccc(O)c3)nc12)c1cscn1 [Compound 185]
A (EC1.5<1.0 uM) | A (Fold activation >200%) | O=C(Nc1cccnc1)c1cccc2ccc(-c3ccnc(C(F)F)c3)nc12 [Compound 305]
A (EC1.5<1.0 uM) | A (Fold activation >200%) | O=C(Nc1cccnc1)c1cccc2ccc(-c3cccc(OC4CCNCC4)c3)nc12 [Compound 132]
C (EC1.5>25 uM) | – | O=C(Nc1ccncn1)c1cccc2ccc(-c3cccnc3)nc12 [Compound 208]
A (EC1.5<1.0 uM) | A (Fold activation >200%) | O=C(Nc1cnccn1)c1cccc2ccc(-c3cccc(C(F)(F)F)c3)nc12 [Compound 16]
A (EC1.5<1.0 uM) | A (Fold activation >200%) | O=C(Nc1ccc(CN2CCCC2)cn1)c1cccc2ccc(-c3cccc(C(F)(F)F)c3)nc12 [Compound 285]
C (EC1.5>25 uM) | – | Cc1cncc(-c2ccc3cccc(C(=O)Nc4nccs4)c3n2)c1 [Compound 242]
C (EC1.5>25 uM) | – | O=C(Nc1nncs1)c1cccc2ccc(-c3cccnc3)nc12 [Compound 234]
A (EC1.5<1.0 uM) | A (Fold activation >200%) | Cc1cccc(NC(=O)c2cccc3ccc(-c4cccc(N5CCOCC5)c4)nc23)n1 [Compound 268]
A (EC1.5<1.0 uM) | A (Fold activation >200%) | O=C(Nc1ccncc1)c1cccc2ccc(-c3cccc(N4CCOCC4)c3)nc12 [Compound 254]
B (EC1.5 1-25 uM) | A (Fold activation >200%) | O=C(Nc1cccc2ccc(-c3ccc(N4CCOCC4)nc3)nc12)c1cscn1 [Compound 246]
A (EC1.5<1.0 uM) | A (Fold activation >200%) | O=C(Nc1cccc(OC2CCNCC2)c1)c1cccc2ccc(-c3cccc(C(F)(F)F)c3)nc12 [Compound 256]
B (EC1.5 1-25 uM) | B (Fold Activation <200%) | O=S(=O)(Nc1cccc2ccc(-c3cccc(OC(F)(F)F)c3)nc12)N1CCNCC1 [Compound 115]
C (EC1.5>25 uM) | – | O=C(Nc1nccs1)c1ccc(F)c2ccc(-c3cccc(C(F)(F)F)c3)nc12 [Compound 66]
A (EC1.5<1.0 uM) | A (Fold activation >200%) | O=C(Nc1ccc(CN2CCCC2)cn1)c1cccc2ccc(-c3cccc(C(F)F)c3)nc12 [Compound 302]
B (EC1.5 1-25 uM) | A (Fold activation >200%) | O=C(Nc1ncc(CN2CCCC2)s1)c1cccc2ccc(-c3cccc(C(F)F)c3)nc12 [Compound 262]
